Several values for one entry are separate records, joined by “and”; a condition that tells them apart may be missing. Identical values can stand only once. Inconclusive results and toxic doses are left out. Rule as the data show it: active = T/C of 150% or more; inactive = T/C below 125%.
System: L1210 leukemia ip in BDF1 mice, survival T/C
Experiment: NCI In Vivo Anticancer Drug Screen. Data for tumor model L1210 Leukemia (intraperitoneal) in B6D2F1 (BDF1) mice
Conditions: endpoint: mean survival time, higher = longer survival
In short: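 Tumor cells were implanted, animals were treated, and survival was followed. The result divides the treated measurement by the vehicle-control measurement.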

[1] = dose: 75.0 mg/kg/injection, schedule: Q04DX003 (ip), vehicle: saline with Tween-80
[2] = dose: 100.0 mg/kg/injection, schedule: Q01DX009 (ip), vehicle: Klucel (hydroxypropylcellulose) (HPC)
[3] = dose: 400.0 mg/kg/injection, schedule: Q01DX009 (ip), vehicle: Klucel (hydroxypropylcellulose) (HPC)
[4] = dose: 50.0 mg/kg/injection, schedule: Q01DX001 (ip), vehicle: saline
[5] = dose: 100.0 mg/kg/injection, schedule: Q01DX001 (ip), vehicle: saline
[6] = dose: 200.0 mg/kg/injection, schedule: Q01DX001 (ip), vehicle: saline
[7] = dose: 400.0 mg/kg/injection, schedule: Q01DX001 (ip), vehicle: saline
[8] = dose: 100.0 mg/kg/injection, schedule: Q04DX003 (ip), vehicle: saline with Tween-80
[9] = dose: 200.0 mg/kg/injection, schedule: Q04DX003 (ip), vehicle: saline with Tween-80

Measured: T/C

Cc1ccc(Nc2c3ccccc3nc3ccccc23)cc1
inactive: dose: 18.0 mg/kg/injection, schedule: Q01DX009 (ip), vehicle: saline with Tween-80 100 % of control | dose: 37.5 mg/kg/injection, schedule: Q01DX009 (ip), vehicle: saline with Tween-80 110 % of control | dose: 40.0 mg/kg/injection, schedule: Q04DX003 (ip), vehicle: saline with Tween-80 96 % of control | dose: 65.0 mg/kg/injection, schedule: Q04DX003 (ip), vehicle: saline with Tween-80 106 % of control | dose: 75.0 mg/kg/injection, schedule: Q01DX001 (ip), vehicle: saline 100 % of control (2×) and 105 % of control | dose: 75.0 mg/kg/injection, schedule: Q01DX009 (ip), vehicle: saline with Tween-80 113 % of control | [1] 100 % of control | dose: 95.0 mg/kg/injection, schedule: Q04DX003 (ip), vehicle: saline with Tween-80 123 % of control | dose: 150.0 mg/kg/injection, schedule: Q01DX001 (ip), vehicle: saline 118 % of control | dose: 150.0 mg/kg/injection, schedule: Q04DX003 (ip), vehicle: saline with Tween-80 107 % of control and 88 % of control | dose: 225.0 mg/kg/injection, schedule: Q04DX003 (ip), vehicle: saline with Tween-80 118 % of control

CC1=C(C)C2(C)C(C)(O)C(C)(O)C12C (stereo not given)
inactive: dose: 75.0 mg/kg/injection, schedule: Q01DX001 (ip), vehicle: acetone 97 % of control | [1] 87 % of control | dose: 150.0 mg/kg/injection, schedule: Q01DX001 (ip), vehicle: acetone 102 % of control | dose: 300.0 mg/kg/injection, schedule: Q01DX001 (ip), vehicle: acetone 102 % of control

CC(C)(c1ccccc1)C(C)(C)c1ccccc1
inactive: [2] 91 % of control | dose: 100.0 mg/kg/injection, schedule: Q04DX003 (ip), vehicle: Klucel (hydroxypropylcellulose) (HPC) 92 % of control | dose: 200.0 mg/kg/injection, schedule: Q04DX003 (ip), vehicle: Klucel (hydroxypropylcellulose) (HPC) 96 % of control | [3] 89 % of control | dose: 400.0 mg/kg/injection, schedule: Q04DX003 (ip), vehicle: Klucel (hydroxypropylcellulose) (HPC) 96 % of control

COc1ccc2c(=O)c(O)c(-c3ccc(OC)c(OC)c3)oc2c1
inactive: [4] 97 % of control | [5] 94 % of control | [6] 92 % of control | [7] 94 % of control

CCN(CC)c1ccc(NC(C)=O)cc1
inactive: dose: 12.5 mg/kg/injection, schedule: Q01DX009 (ip), vehicle: Klucel (hydroxypropylcellulose) (HPC) 106 % of control | dose: 12.5 mg/kg/injection, schedule: Q04DX003 (ip), vehicle: Klucel (hydroxypropylcellulose) (HPC) 92 % of control | dose: 25.0 mg/kg/injection, schedule: Q01DX009 (ip), vehicle: Klucel (hydroxypropylcellulose) (HPC) 97 % of control | dose: 25.0 mg/kg/injection, schedule: Q04DX003 (ip), vehicle: Klucel (hydroxypropylcellulose) (HPC) 91 % of control | dose: 50.0 mg/kg/injection, schedule: Q01DX009 (ip), vehicle: Klucel (hydroxypropylcellulose) (HPC) 95 % of control

Nc1nc(N)c2nc(CNc3ccc(C(=O)NC(CCC(=O)O)C(=O)O)cc3)cnc2n1 (stereo not given)
inactive: dose: 0.02 mg/kg/injection, schedule: Q01DX Z (sc), vehicle: saline 122 % of control | dose: 0.03 mg/kg/injection, schedule: Q01DX Z (ip), vehicle: saline 118 % of control | dose: 0.05 mg/kg/injection, schedule: Q01DX006 (iv), vehicle: saline 114 % of control | dose: 0.05 mg/kg/injection, schedule: Q01DX010 (ip), vehicle: other 98 % of control and 112 % of control | dose: 0.05 mg/kg/injection, schedule: Q01DX Z (im), vehicle: saline 119 % of control | dose: 0.06 mg/kg/injection, schedule: Q01DX Z (ip), vehicle: saline 105 % of control | dose: 0.1 mg/kg/injection, schedule: Q01DX010 (ip), vehicle: other 108 % of control | dose: 0.1 mg/kg/injection, schedule: Q01DX Z (im), vehicle: saline 113 % of control | dose: 0.1 mg/kg/injection, schedule: Q01DX Z (ip), vehicle: saline 119 % of control | dose: 0.2 mg/kg/injection, schedule: Q01DX Z (ip), vehicle: saline 96 % of control and 105 % of control | dose: 0.2 mg/kg/injection, schedule: Q01DX Z (oral), vehicle: saline 119 % of control | dose: 0.2 mg/kg/injection, schedule: Q01DX Z (sc), vehicle: saline 101 % of control and 114 % of control | dose: 0.5 mg/kg/injection, schedule: Q01DX001 (ip), vehicle: saline 111 % of control and 114 % of control | dose: 0.5 mg/kg/injection, schedule: Q01DX Z (oral), vehicle: saline 106 % of control | dose: 0.5 mg/kg/injection, schedule: Q01DX Z (sc), vehicle: saline 103 % of control | dose: 1.0 mg/kg/injection, schedule: Q01DX001 (ip), vehicle: saline 115 % of control | dose: 1.0 mg/kg/injection, schedule: Q01DX Z (ip), vehicle: saline 94 % of control | dose: 2.0 mg/kg/injection, schedule: Q01DX001 (ip), vehicle: saline 117 % of control and 121 % of control | dose: 16.0 mg/kg/injection, schedule: Q01DX001 (ip), vehicle: saline 106 % of control and 124 % of control | dose: 32.0 mg/kg/injection, schedule: Q01DX001 (ip), vehicle: saline 96 % of control and 120 % of control | dose: 64.0 mg/kg/injection, schedule: Q01DX001 (ip), vehicle: saline 105 % of control | dose: 128.0 mg/kg/injection, schedule: Q01DX001 (ip), vehicle: saline 105 % of control and 86 % of control | dose: 256.0 mg/kg/injection, schedule: Q01DX001 (ip), vehicle: saline 100 % of control
active: dose: 0.02 mg/kg/injection, schedule: Q01DX Z (ip), vehicle: saline 170 % of control | dose: 0.2 mg/kg/injection, schedule: Q01DX Z (im), vehicle: saline 154 % of control | dose: 0.4 mg/kg/injection, schedule: Q01DX010 (ip), vehicle: other 162 % of control

CC(C)(C)NO
inactive: dose: 100.0 mg/kg/injection, schedule: Q01DX001 (ip), vehicle: Klucel (hydroxypropylcellulose) (HPC) 113 % of control | [2] 108 % of control | dose: 200.0 mg/kg/injection, schedule: Q01DX001 (ip), vehicle: Klucel (hydroxypropylcellulose) (HPC) 101 % of control | dose: 200.0 mg/kg/injection, schedule: Q01DX009 (ip), vehicle: Klucel (hydroxypropylcellulose) (HPC) 103 % of control | dose: 400.0 mg/kg/injection, schedule: Q01DX001 (ip), vehicle: Klucel (hydroxypropylcellulose) (HPC) 98 % of control | [3] 101 % of control

Nc1ccc(S(=O)(=O)O)c2ccccc12
inactive: [4] 94 % of control | [5] 94 % of control | [6] 103 % of control | [7] 94 % of control

N/N=C(/C(=O)c1ccccc1)c1ccccc1
inactive: [5] 102 % of control | [8] 100 % of control | [6] 96 % of control | [9] 95 % of control | [7] 96 % of control | dose: 400.0 mg/kg/injection, schedule: Q04DX003 (ip), vehicle: saline with Tween-80 100 % of control

N#CCCN(CCC#N)[N+](=O)[O-]
inactive: dose: 87.5 mg/kg/injection, schedule: Q01DX009 (ip), vehicle: Klucel (hydroxypropylcellulose) (HPC) 97 % of control | dose: 100.0 mg/kg/injection, schedule: Q04DX002 (ip), vehicle: Klucel (hydroxypropylcellulose) (HPC) 98 % of control | dose: 100.0 mg/kg/injection, schedule: Q04DX002 (ip), vehicle: saline + alcohol 97 % of control | dose: 175.0 mg/kg/injection, schedule: Q01DX009 (ip), vehicle: Klucel (hydroxypropylcellulose) (HPC) 100 % of control | dose: 200.0 mg/kg/injection, schedule: Q04DX002 (ip), vehicle: Klucel (hydroxypropylcellulose) (HPC) 102 % of control | dose: 200.0 mg/kg/injection, schedule: Q04DX002 (ip), vehicle: saline + alcohol 105 % of control | dose: 400.0 mg/kg/injection, schedule: Q04DX002 (ip), vehicle: Klucel (hydroxypropylcellulose) (HPC) 87 % of control | dose: 400.0 mg/kg/injection, schedule: Q04DX002 (ip), vehicle: saline + alcohol 101 % of control

CCCCOC(=O)c1ccccn1
inactive: [8] 99 % of control | [9] 94 % of control

CCOC(=O)C(F)=C(CF)CF
inactive: dose: 50.0 mg/kg/injection, schedule: Q01DX001 (ip), vehicle: carboxymethylcellulose (CMC) 105 % of control | dose: 100.0 mg/kg/injection, schedule: Q01DX001 (ip), vehicle: carboxymethylcellulose (CMC) 111 % of control | dose: 200.0 mg/kg/injection, schedule: Q01DX001 (ip), vehicle: carboxymethylcellulose (CMC) 109 % of control | dose: 400.0 mg/kg/injection, schedule: Q01DX001 (ip), vehicle: carboxymethylcellulose (CMC) 94 % of control
